Legend:
[1] = system: MCF7 (breast) cancer cell line; experiment: MTT antiproliferation, MCF7; assay type: cell-based, human; conditions: for IC50: Homo sapiens, MCF7, 72 h, read-out: IC50 (µM) ± SEM MCF7; for SI (selectivity index) MCF7: IC50 of RPE1/IC50 of cancer cell line
Summary of the method: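 Cells seeded 30000/well for 24 h, then treated for 72 h with triplicate wells per dose; 0.5% DMSO as negative control. MTT (2.5 mg ml^-1) added for 4 h at 37 °C, crystals dissolved in 10% SDS overnight. Surviving fraction = O.D. treated / O.D. control.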

[2] = system: PaCa2 (pancreatic) cancer cell line; experiment: MTT antiproliferation, PaCa-2; assay type: cell-based, human; conditions: for IC50: Homo sapiens, PaCa-2, 72 h, read-out: IC50 (µM) ± SEM PaCa-2; for SI (selectivity index) PaCa-2: IC50 of RPE1/IC50 of cancer cell line
[3] = system: MCF7 (breast cancer cell line); experiment: PI-flow cytometry cell cycle studies; assay type: cell-based, human; conditions: MCF7, PI-FC, compound at its MTT IC50
Method: Flow cytometry (FC) is a reliable technique for evaluation of cancer cell progression[72]–[74]. Illumination of the cells by lasers can identify the stained propidium iodide (PI) DNA cell content in stoichiometric population value. This is a commonly accessible methodology for studying cancer cell antiproliferation and cell cycle phase suppression.
Cell cycle studies for the most promising agents synthesized (6l and 6m) against MCF7 (breast) cancer call were conducted by the standard technique. The Cells were suspended in DMEM medium in addition to 1% antibiotic–antimycotic mixture (10000 μg ml^-1 potassium penicillin, 10000 μg ml^-1 streptomycin sulfate and 25 μg ml^-1 amphotericin B), 10% fetal bovine serum and 1% L-glutamine at 37 °C, under 5% CO2 and 95% humidity. Cells were seeded at concentration of 30000 cells per well in fresh complete growth medium in 96-well tissue culture microtiter plates for 24 h. Media was aspirated, fresh complete medium was added and cells were incubated with the IC50 concentration of the tested compounds which determined previously in the MTT antiproliferation testing assay. The ab139418-Propidium Iodide Flow Cytometry kit for cycle analysis (reader: BD FACS Calibur)^8 was used for cell cycle analysis. The Annexin V-FITC Apoptosis Detection Kit (Catalog#K101-25) was utilized for apoptosis studies.^9 All the studies were conducted according to the manufacturer’s instruction.

EGFR = molecular target: T1, EGFR (Homo sapiens, UniProt P00533); assay type: cell-based; conditions: western blot, MCF7, compound at its MTT IC50; for EGFR RQ (relative quantification): control RQ 3.4461
T1 construct: Western blot technique was considered for EGFR and VEGFR-2 properties determination; endogenous in cells; host or cells: MCF7 (breast cancer cell line)
T1 sequence (P00533 25-1210): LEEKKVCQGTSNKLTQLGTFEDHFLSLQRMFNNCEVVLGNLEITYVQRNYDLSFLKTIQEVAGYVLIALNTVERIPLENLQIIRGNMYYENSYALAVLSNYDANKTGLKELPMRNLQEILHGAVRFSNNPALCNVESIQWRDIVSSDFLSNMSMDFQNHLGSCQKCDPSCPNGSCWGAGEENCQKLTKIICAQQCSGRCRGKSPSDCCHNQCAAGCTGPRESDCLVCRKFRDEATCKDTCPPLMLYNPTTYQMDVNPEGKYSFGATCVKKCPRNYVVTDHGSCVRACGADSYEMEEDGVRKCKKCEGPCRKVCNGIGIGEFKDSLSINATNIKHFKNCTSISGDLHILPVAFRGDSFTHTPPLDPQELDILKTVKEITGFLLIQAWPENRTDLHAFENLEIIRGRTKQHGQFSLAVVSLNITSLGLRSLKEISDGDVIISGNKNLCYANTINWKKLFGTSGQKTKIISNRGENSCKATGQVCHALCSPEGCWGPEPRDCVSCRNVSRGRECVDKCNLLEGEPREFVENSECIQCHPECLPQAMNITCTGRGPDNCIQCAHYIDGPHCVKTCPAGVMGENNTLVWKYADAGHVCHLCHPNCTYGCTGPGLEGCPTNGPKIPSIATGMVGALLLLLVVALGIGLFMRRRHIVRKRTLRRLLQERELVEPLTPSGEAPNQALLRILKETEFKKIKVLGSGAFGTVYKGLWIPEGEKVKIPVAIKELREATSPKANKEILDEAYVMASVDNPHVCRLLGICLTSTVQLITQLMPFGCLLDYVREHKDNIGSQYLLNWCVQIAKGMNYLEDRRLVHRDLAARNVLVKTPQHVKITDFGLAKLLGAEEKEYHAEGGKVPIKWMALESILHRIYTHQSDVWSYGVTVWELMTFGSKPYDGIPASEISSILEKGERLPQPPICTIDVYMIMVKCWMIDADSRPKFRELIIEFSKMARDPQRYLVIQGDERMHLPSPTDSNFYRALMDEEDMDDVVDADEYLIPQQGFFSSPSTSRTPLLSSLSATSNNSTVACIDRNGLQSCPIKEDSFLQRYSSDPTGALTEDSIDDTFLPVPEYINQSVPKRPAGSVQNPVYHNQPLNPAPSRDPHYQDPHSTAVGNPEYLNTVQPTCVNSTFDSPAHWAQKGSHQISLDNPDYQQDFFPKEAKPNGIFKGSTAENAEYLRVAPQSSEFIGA
Summary of the method: (§1)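 Western blot of MCF7 breast cancer cells, each agent tested at its own IC50 from the MTT assay on that line, following the manufacturer's instructions.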

VEGFR-2 = molecular target: T2, VEGFR-2 (Homo sapiens, UniProt P35968); assay type: cell-based; conditions: western blot, MCF7, compound at its MTT IC50; for VEGFR-2 RQ (relative quantification): control RQ 3.2634
T2 construct: Western blot technique was considered for EGFR and VEGFR-2 properties determination; endogenous in cells; host or cells: MCF7 (breast cancer cell line)
T2 sequence (P35968 20-1356): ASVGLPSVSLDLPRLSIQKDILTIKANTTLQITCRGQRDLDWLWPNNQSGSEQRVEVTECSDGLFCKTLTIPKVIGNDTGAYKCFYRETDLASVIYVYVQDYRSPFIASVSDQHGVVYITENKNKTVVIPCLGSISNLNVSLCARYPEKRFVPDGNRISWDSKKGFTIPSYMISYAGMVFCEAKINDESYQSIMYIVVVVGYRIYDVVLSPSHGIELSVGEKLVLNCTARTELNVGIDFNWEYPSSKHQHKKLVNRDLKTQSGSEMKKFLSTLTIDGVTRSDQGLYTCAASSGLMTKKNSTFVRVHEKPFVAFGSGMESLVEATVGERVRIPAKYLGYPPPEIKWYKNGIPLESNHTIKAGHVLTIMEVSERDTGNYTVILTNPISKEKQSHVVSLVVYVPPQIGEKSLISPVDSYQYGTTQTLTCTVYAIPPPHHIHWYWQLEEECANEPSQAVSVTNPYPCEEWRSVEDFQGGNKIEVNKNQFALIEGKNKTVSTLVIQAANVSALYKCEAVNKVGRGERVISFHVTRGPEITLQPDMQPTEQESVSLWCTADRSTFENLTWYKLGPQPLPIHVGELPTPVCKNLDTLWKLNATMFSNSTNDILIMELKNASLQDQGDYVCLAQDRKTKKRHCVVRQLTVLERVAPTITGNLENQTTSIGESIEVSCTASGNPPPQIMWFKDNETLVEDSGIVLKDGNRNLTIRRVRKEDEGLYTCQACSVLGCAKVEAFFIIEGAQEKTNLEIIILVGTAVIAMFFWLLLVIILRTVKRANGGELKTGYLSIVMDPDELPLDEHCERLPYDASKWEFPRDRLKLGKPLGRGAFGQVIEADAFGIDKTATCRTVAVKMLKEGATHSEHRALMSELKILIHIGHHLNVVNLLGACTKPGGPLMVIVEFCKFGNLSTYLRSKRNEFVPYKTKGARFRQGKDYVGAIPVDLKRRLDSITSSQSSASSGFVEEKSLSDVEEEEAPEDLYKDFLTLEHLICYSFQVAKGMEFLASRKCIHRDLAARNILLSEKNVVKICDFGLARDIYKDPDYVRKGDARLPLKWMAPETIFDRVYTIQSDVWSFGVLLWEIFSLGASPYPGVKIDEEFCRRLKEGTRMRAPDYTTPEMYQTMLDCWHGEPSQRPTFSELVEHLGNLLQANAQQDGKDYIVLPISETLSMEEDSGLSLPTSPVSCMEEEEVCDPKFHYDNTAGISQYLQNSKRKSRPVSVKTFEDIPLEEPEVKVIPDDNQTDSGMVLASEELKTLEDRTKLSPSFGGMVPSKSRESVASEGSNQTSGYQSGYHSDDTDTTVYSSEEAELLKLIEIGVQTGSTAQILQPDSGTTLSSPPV
Summary of the method: as §1

[4] = MTT cytotoxicity assay (CC50); assay type: cell-based; conditions: African green monkey, VERO-E6 cells
Summary of the method: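 VERO-E6 cells seeded at 3 x 10^5 cell/ml, grown 24 h at 37 °C, then exposed to compounds in triplicate for 24 h. Viability by MTT (4 h, 37 °C), formazan in acidified isopropanol read at 570 nm; CC50 by nonlinear regression versus untreated cells.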

AChE = AChE (Homo sapiens, UniProt P22303); experiment: AChE inhibition (DTNB, acetylthiocholine); assay type: biochemical; conditions: for IC50: read-out: AChE (IC50, μM) ± SD
Chain of AChE (P22303 32-614): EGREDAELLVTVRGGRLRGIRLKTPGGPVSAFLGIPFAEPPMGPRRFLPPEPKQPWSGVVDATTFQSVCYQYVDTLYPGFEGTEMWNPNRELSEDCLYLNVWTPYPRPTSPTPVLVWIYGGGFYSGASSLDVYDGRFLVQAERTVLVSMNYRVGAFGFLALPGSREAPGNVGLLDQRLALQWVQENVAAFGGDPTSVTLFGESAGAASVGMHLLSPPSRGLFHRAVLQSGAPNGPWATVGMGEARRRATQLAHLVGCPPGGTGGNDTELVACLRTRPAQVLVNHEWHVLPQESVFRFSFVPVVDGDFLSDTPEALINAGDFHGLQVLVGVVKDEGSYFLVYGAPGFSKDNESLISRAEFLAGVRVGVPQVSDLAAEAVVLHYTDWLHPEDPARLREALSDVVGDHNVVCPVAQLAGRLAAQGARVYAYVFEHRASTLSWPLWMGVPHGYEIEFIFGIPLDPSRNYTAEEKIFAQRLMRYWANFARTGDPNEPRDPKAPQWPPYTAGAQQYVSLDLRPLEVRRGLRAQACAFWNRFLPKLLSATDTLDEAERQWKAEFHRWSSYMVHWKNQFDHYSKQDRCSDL
Method: All compounds were dissolved in MeOH.

BChE = BChE (Homo sapiens, UniProt P06276); experiment: BChE inhibition (DTNB, butyrylthiocholine iodide)
Chain of BChE (P06276 29-602, species assumed): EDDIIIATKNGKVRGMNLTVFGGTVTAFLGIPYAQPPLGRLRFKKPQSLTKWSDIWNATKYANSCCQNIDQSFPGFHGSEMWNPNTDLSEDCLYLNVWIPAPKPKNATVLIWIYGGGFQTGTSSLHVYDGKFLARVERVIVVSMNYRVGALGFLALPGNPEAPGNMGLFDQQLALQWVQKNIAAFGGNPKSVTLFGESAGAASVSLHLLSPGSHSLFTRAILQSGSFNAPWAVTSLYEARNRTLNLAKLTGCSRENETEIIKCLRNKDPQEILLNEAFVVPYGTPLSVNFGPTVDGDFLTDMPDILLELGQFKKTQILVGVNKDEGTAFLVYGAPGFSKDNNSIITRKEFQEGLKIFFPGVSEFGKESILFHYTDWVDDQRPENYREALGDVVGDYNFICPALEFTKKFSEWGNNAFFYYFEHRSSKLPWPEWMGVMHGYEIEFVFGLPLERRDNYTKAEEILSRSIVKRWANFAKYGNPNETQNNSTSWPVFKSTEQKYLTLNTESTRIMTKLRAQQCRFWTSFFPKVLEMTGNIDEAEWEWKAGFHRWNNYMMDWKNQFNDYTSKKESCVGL
Method: Butyrylthiocholine iodide and acetylthiocholine were utilized as substrates in BChE and AChE assays, respectively, where DTNB was served as indicator. All compounds were dissolved in MeOH. […] Blank assays were performed by replacing the enzyme (20 μL) with buffer and their absorbances were recorded for correction of the spontaneous lysis of the indicator or inherent color of the inhibitor.
% Inhibition = [1−(corrected A/corrected B)] * 100

CCS(=O)(=O)N1C/C(=C\c2ccc(Cl)cc2)C(=O)C2(C1)C(c1ccc(Cl)cc1)CN(C)C21C(=O)Nc2ccc(Cl)cc21 (stereo not drawn) [Compound 6l, (E)-5-Chloro-5″-(4-chlorobenzylidene)-4′-(4-chlorophenyl)-1″-(ethylsulfonyl)-1′-methyldispiro[indoline-3,2′-pyrrolidine-3′,3″-piperidine]-2,4″-dione]
IC50 [1]: 3.99 ± 0.31 µM | SI (selectivity index) MCF7 [1]: > 12.5 | IC50 [2]: 11.9 ± 0.83 µM | SI (selectivity index) PaCa-2 [2]: > 4.2 | % DNA content G0–G1 [3]: 66.13% | % DNA content G2/M [3]: 10.13% | % DNA content S [3]: 23.74% | EGFR % Inhibition (EGFR): 65.7% | EGFR RQ (relative quantification) (EGFR): 1.18 | VEGFR-2 % Inhibition (VEGFR-2): 60.2% | VEGFR-2 RQ (relative quantification) (VEGFR-2): 1.299 | CC50 at 24 h [4]: 476 µM | SI = IC50 (AChE)/IC50 (BChE) (AChE): 2.0 | IC50 (AChE): 23.6 ± 7.73 µM | IC50 (BChE): 11.8 ± 0.95 µM

CN1CC(c2ccc(Br)cc2)C2(CN(S(C)(=O)=O)C/C(=C\c3ccc(Br)cc3)C2=O)C12C(=O)Nc1ccccc12 (stereo not drawn) [Compound 6m, (E)-5″-(4-Bromobenzylidene)-4′-(4-bromophenyl)-1′-methyl-1″-(methylsulfonyl)dispiro[indoline-3,2′-pyrrolidine-3′,3″-piperidine]-2,4″-dione]
IC50 [1]: 3.6 ± 0.19 µM | SI (selectivity index) MCF7 [1]: 4.1 | IC50 [2]: 12.5 ± 0.67 µM | SI (selectivity index) PaCa-2 [2]: 1.2 | % DNA content G0–G1 [3]: 62.51% | % DNA content G2/M [3]: 2.38% | % DNA content S [3]: 35.11% | EGFR % Inhibition (EGFR): 65.6% | EGFR RQ (relative quantification) (EGFR): 1.1845 | VEGFR-2 % Inhibition (VEGFR-2): 61.3% | VEGFR-2 RQ (relative quantification) (VEGFR-2): 1.264 | CC50 at 24 h [4]: 160 µM | SI = IC50 (AChE)/IC50 (BChE) (AChE): 1.1 | IC50 (AChE): 29.7 ± 4.05 µM | IC50 (BChE): 27.9 ± 2.96 µM
